# Assay results reported in US20030100034A1, “9136, a human aldehyde dehydrogenase family member and uses therefor” (Millennium Pharmaceuticals, Inc., priority 2001, published 2003).
# System: 9136 in NCI-H125 cells
# Test: 9136 expression after 4HT induction of p53ER in NCI-H125 cells
# Assay type: cell-based, human
# Protocol: Total RNA was prepared from various human tissues by a single step extraction method using RNA STAT-60 according to the manufacturer's instructions (TelTest, Inc). Each RNA preparation was treated with DNase I (Ambion) at 37° C. for 1 hour. DNAse I treatment was determined to be complete if the sample required at least 38 PCR amplification cycles to reach a threshold level of fluorescence using β-2 microglobulin as an internal amplicon reference. The integrity of the RNA samples following DNase I treatment was confirmed by agarose gel electrophoresis and ethidium bromide staining. After phenol extraction cDNA was prepared from the sample using the SUPERSCRIPT™ Choice System following the manufacturer's instructions (GibcoBRL). A negative control of RNA without reverse transcriptase was mock reverse transcribed for each RNA sample. Human 9136 expression was measured by TaqMan® & quantitative PCR (Perkin Elmer Applied Biosystems) in cDNA prepared from a variety of normal and diseased (e.g., cancerous) human tissues or cell lines. Probes were designed by PrimerExpress software (PE Biosystems) based on the sequence of the human 9136 gene. Each human 9136 gene probe was labeled using FAM (6-carboxyfluorescein), and the β2-microglobulin reference probe was labeled with a different fluorescent dye, VIC. The differential labeling of the target gene and internal reference gene thus enabled measurement in same well. Forward and reverse primers and the probes for both β2-microglobulin and target gene were added to the TaqMan® Universal PCR Master Mix (PE Applied Biosystems). Although the final concentration of primer and probe could vary, each was internally consistent within a given experiment. A typical experiment contained 200 nM of forward and reverse primers plus 100 nM probe for β-2 microglobulin and 600 nM forward and reverse primers plus 200 nM probe for the target gene. TaqMan matrix experiments were carried out on an ABI PRISM 7700 Sequence Detection System (PE Applied Biosystems). The thermal cycler conditions were as follows: hold for 2 min at 50° C. and 10 min at 95° C., followed by two-step PCR for 40 cycles of 95° C. for 15 sec followed by 60° C. for 1 min.
# The following method was used to quantitatively calculate human 9136 gene expression in the various tissues relative to β-2 microglobulin expression in the same tissue. The threshold cycle (Ct) value is defined as the cycle at which a statistically significant increase in fluorescence is detected. A lower Ct value is indicative of a higher mRNA concentration. The Ct value of the human 9136 gene is normalized by subtracting the Ct value of the β-2 microglobulin gene to obtain a ΔCt value using the following formula: ΔCt=[…]−Ctβ-2 microglobulin. Expression is then calibrated against a cDNA sample showing a comparatively low level of expression of the human 9136 gene. The ΔCt value for the calibrator sample is then subtracted from ΔCt for each tissue sample according to the following formula: ΔΔCt=ΔCt-sample−ΔCt-calibrator. Relative expression is then calculated using the arithmetic formula given by 2^−ΔΔCt. Relative expression levels of the target human 9136 gene in each of the tissues tested is then graphically represented as discussed in more detail below.
# In addition, a study of the 9136 gene expression levels, with or without introduction of p53 expression, was carried out in several carcinoma cell lines. The p53 tumor suppressor gene has been the subject of intense study for a number of years. […] One of those identified genes is 9136, which, as mentioned earlier, is the human ALDH6 gene.
smiles,measurement,setting,value
CC/C(=C(\c1ccc(O)cc1)c1ccc(OCCN(C)C)cc1)c1ccccc1 [4HT],9136 Expression,0 hr post-4HT induction,5.82
same,9136 Expression,5 min post-4HT induction,6.29
same,9136 Expression,20 min post-4HT induction,5.64
same,9136 Expression,1 hr post-4HT induction,5.60
same,9136 Expression,3 hr post-4HT induction,5.83
same,9136 Expression,9 hr post-4HT induction,5.10
same,9136 Expression,24 hr post-4HT induction,3.1
same,9136 Expression,48 hr post-4HT induction,3.03
